# According to US12221625B2, “Method for producing retinal pigment epithelial cells” (SUMITOMO PHARMA CO., LTD., priority 2015, dated 2025):
# Experiments:
# [1] = test system: human iPS cells (QHJI01 line); assay: Differentiation induction effect of Nodal or Wnt signal transduction pathway inhibitor alone in second step (Example 12); type: cell-based; settings: second step day 1 to day 12 with 5 μM SB-431542 and/or 3 μM CKI-7, after first step with 1 μM PD0325901 for 6 days; day 43 of culture
# Excerpt: (§1) 2014 Jan. 8; 4: 3594”. The medium used was “STEMFIT™” AK03N medium (Ajinomoto Co., Inc.) (hereinafter AK03N medium).
# In the second step, the following 3 kinds of media were used.
# [2] = test system: human iPS cells (QHJI01 line and 1231A3 line); assay: MEK inhibitors PD184352, U0126, TAK-733, AZD-8330 in first step (Example 10); type: cell-based; settings: 6 days; 1 μM PD0325901; 1.5, 3, 6 μM PD184352; 5, 10 μM U0126; 0.3 μM TAK-733; 0.3 μM AZD-8330; day 49 and day 50 of culture
# Excerpt: The medium used was “STEMFIT™” AK03N medium (Ajinomoto Co., Inc.) (hereinafter AK03N medium).
# [3] = test system: human iPS cells (201B7 line and 1231A3 line); assay: Production of RPE cells from human iPS cells including MEK inhibitor treatment step (Example 1); type: cell-based
# Method: The medium used was “STEMFIT™” AK03 medium (Ajinomoto Co., Inc.) (hereinafter AK03 medium) or Essential 8 medium (Life Technologies).
# Production of retinal pigment epithelial (RPE) cells including an MEK inhibitor treatment step was performed as follows. iPS cells under culture for maintaining undifferentiated state were treated with 0.5×TrypLE select (mixture of equal amounts of TrypLE select (Life Technologies)) and 0.5 mM EDTA/PBS(−)), dissociated using a cell scraper, dispersed to single cells by pipetting, seeded in a 6-well culture plate coated with iMatrix-511 (Nippi) (0.5 μg/cm^2) at 1.2×10^4 cells per 1 well, and cultured in an AK03 medium or Essential 8 medium containing a ROCK inhibitor [10 μM Y-27632 (Wako Pure Chemical Industries, Ltd.)] under 37° C., 5% CO2 conditions. On the next day of seeding, PD0325901 (SIGMA) as an MEK inhibitor was added to the AK03 medium at a final concentration of 1 μM or Essential 8 medium at a final concentration of 0.03 μM (start of the first step) and the cells were exposed thereto for 6 days (completion of the first step). […]
# [4] = test system: human iPS cells (201B7 line and 1231A3 line); assay: Production of RPE cells including combined treatment step of MEK inhibitor and/or FGF receptor inhibitor and various inhibitors or agonist (Example 3); type: cell-based; settings: first step 6 days in AK03 medium; observed 38 to 47 days of culture; FIG. 7
# Method: (§2) The medium used was “STEMFIT™” AK03 medium (Ajinomoto Co., Inc.) (hereinafter AK03 medium).
# Production of retinal pigment epithelial (RPE) cells including a combined treatment step of MEK inhibitor and/or FGF receptor inhibitor, and various inhibitors, signal transduction pathway inhibitor or signal transduction pathway agonist was performed as follows. iPS cells under culture for maintaining undifferentiated state were treated with 0.5×TrypLE select, dissociated using a cell scraper, dispersed to single cells by pipetting, seeded in a 6-well culture plate coated with iMatrix-511 (Nippi) (0.5 μg/cm^2) at 1.2×10^4 cells per 1 well and cultured in a ROCK inhibitor [10 μM Y-27632 (Wako Pure Chemical Industries, Ltd.)]-containing AK03 medium under 37° C., 5% CO2 conditions. The next day of cell seeding, PD0325901 (SIGMA) (final concentration 1 μM) as an MEK inhibitor, PD173074 (SIGMA) (final concentration 100 nM) as an FGF receptor inhibitor, LDN193189 (STEMGENT) (final concentration 100 nM) as a BMP receptor inhibitor, SAG (Enzo Life Sciences) (final concentration 30 nM) as an Shh signal transduction pathway agonist, and Go6983 (SIGMA) (final concentration 2 μM) as a PKC inhibitor in the combination shown in FIG. 7 were added to the medium (start of the first step) and the cells were exposed thereto for 6 days (completion of the first step). […]
# [5] = test system: human iPS cells (Ff-I01 line and QHJI01 line); assay: Production of RPE cells including MEK inhibitor or FGF receptor inhibitor treatment step using iPS cells Ff-I01, QHJI01 (Example 4); type: cell-based; settings: PD0325901 1 μM or PD173074 100 nM, 6 days, AK03N medium; day 43 of culture; both Ff-I01 and QHJI01 lines
# Excerpt: as §1
# [6] = test system: human iPS cells (QHJI01 line); assay: Number of days of exposure of each inhibitor in first step (Example 5); type: cell-based; settings: day 48 of culture; for brown-black cell population: 4 days-6 days of exposure; for proportion of cells that developed color in the whole well versus number of exposure days: exposure 1 day to 6 days; for brown-black cell populations: exposure for not less than 2 days, PD0325901 1 μM or PD173074 100 nM
# Excerpt: as §1
# [7] = test system: human iPS cells (1231A3 line); assay: MEK inhibitor exposure period in MEK inhibitor treatment step (Example 6); type: cell-based; settings: PD0325901 1 μM, day 37 of culture
# Method: as §2
# Production of retinal pigment epithelial (RPE) cells including an MEK inhibitor treatment step was performed as follows. iPS cells under culture for maintaining undifferentiated state were treated with 0.5×TrypLE select (mixture of equal amounts of TrypLE select (Life Technologies) and 0.5 mM EDTA/PBS(−)), dissociated using a cell scraper, dispersed to single cells by pipetting, seeded in a 6-well culture plate coated with iMatrix-511 (Nippi) (0.5 μg/cm^2) at 1.2×10^4 cells per 1 well and cultured in a ROCK inhibitor [10 μM Y-27632 (Wako Pure Chemical Industries, Ltd.)]-containing AK03 medium under 37° C., 5% CO2 conditions. On the next day of seeding, 4 days later or 6 days later, PD0325901 (SIGMA) (final concentration 1 μM) as an MEK inhibitor was added to the AK03 medium (start of the first step) and the cells were exposed thereto for 6 days, 3 days or 1 day (completion of the first step). In addition, cells exposed to MEK inhibitor for 6 days were treated with 0.5×TrypLE select, dissociated using a cell scraper, dispersed to single cells by pipetting, seeded in a 6-well culture plate coated with iMatrix-511 (Nippi) (0.5 μg/cm^2) at 0.8×10^4 cells per 1 well and further cultured for 7 days in AK03 medium containing Y-27632 (final concentration 10 μM) and PD0325901 (final concentration 1 μM) under 37° C., 5% CO2 conditions, whereby the cells were exposed to the MEK inhibitor for 13 days (completion of the first step). Thereafter, the cells were treated with 0.5×TrypLE select, dissociated using a cell scraper, dispersed to single cells by pipetting, seeded in a 6-well culture plate coated with iMatrix-511 (0.5 μg/cm^2) at 1.2×10^6 cells per 1 well and cultured under 37° C., 5% CO2 conditions (start of the second step). […]
# [8] = test system: human iPS cells (QHJI01 line); assay: Inhibitor concentrations in MEK inhibitor or FGF receptor inhibitor treatment step (Example 8); type: cell-based; settings: 6 days, day 36 and day 49 of culture
# Excerpt: as §1
# [9] = test system: human iPS cells (QHJI01 line); assay: Seeded cell number in transition of first step to second step (Example 9); type: cell-based; settings: all seeded cell number (0.2, 0.4, 0.6, 1.0, 2.0, or 4.0×10^4 cells/cm^2) at start of second step; PD0325901 1 μM or PD173074 100 nM, 6 days; day 49 of culture
# Excerpt: as §1
# [10] = test system: human iPS cells (1231A3 line); assay: Production of RPE cells including MEK inhibitor or FGF receptor inhibitor treatment step, plate observation (Example 14); type: cell-based; settings: PD0325901 1 μM or PD173074 100 nM, 6 days; day 43 of culture
# Excerpt: as §1
# RPE65, BEST1, CRALBP = assay: RT-PCR of retinal pigment epithelial cell markers in produced RPE cells (Example 14); type: cell-based, human; settings: PD0325901 1 μM or PD173074 100 nM, 6 days; cells collected day 43 of culture
# Method: After observation on day 43 of culture, the cells were collected, RNA was extracted and RT-PCR was performed. RNeasy Micro Kit (QIAGEN) was used for RNA extraction, Oligo (dT)12-18 Primer (Invitrogen) and SuperScript III Reverse Transcriptase (Invitrogen) were used for reverse transcription reaction, and Blend Taq-Plus- (TOYOBO) was used for PCR. The primer sequences of RPE65, BEST1, CRLBP, GAPDH are as described below. […] NO: 1), […] NO: 2), […] NO: 3), […] NO: 4), CRALBP-[…] NO: 5), CRALBP-[…] NO: 6), […] NO: 7), […] NO: 8). The number of cycles of the PCR reaction was 30 cycles for RPE65, BEST1, GAPDH, and 35 cycles for CRALBP. PCR products were detected as a single band by agarose gel electrophoresis at near 369 bp for RPE65, near 261 bp for BEST1, near 341 bp for CRALBP, and near 452 bp for GAPDH. As a positive control, primary human RPE (hRPE) was used and, as a negative control, iPS cells (undifferentiated iPSC) cultured under conditions for maintaining undifferentiated state were used.
# [11] = test system: human iPS cells (201B7 line and 1231A3 line); assay: Production of RPE cells from human iPS cells including FGF receptor inhibitor treatment step (Example 2); type: cell-based; settings: PD173074 100 nM
# Excerpt: In one embodiment, to study the effect of the FGF receptor inhibitor in a medium free of a factor for maintaining undifferentiated state (bFGF), StemSure hPSC Medium Δ (Wako Pure Chemical Industries, Ltd.) (hereinafter StemSure hPSC Medium Δ w/o bFGF) not added with bFGF was used.
# [12] = test system: human iPS cells (QHJI01 line and 1231A3 line); assay: FGF receptor inhibitor SU5402 in first step (Example 11); type: cell-based; settings: 6 days; 100 nM PD173074; 5, 10, 20 μM SU5402; day 49 of culture
# Excerpt: as §1
smiles,measurement,setting,value
"NCCNS(=O)(=O)c1ccc(Cl)c2ccncc12 [WNTi, N-(2-Aminoethyl)-5-chloroisoquinoline-8-sulfonamide]",emergence of cells showing typical characteristics of RPE cell,[1],"the brown-black area in the whole well decreased; however, emergence of a sufficient number of cells showing the typical characteristics of RPE cell could be confirmed"
O=C(NOCC1CC1)c1ccc(F)c(F)c1Nc1ccc(I)cc1Cl [PD184352],emergence of brown-black cell population,[2],emergence of a brown-black cell population could be confirmed over a wide area
"O=C(NOC[C@H](O)CO)c1ccc(F)c(F)c1Nc1ccc(I)cc1F [PD0325901, N-[(2R)-2,3-Dihydroxypropoxy]-3,4-difluoro-2-[(2-fluoro-4-iodophenyl)amino]-benzamide]",emergence of brown-black cell population on culture plate,"[3]; PD0325901 1 μM in AK03 medium or 0.03 μM in Essential 8 medium, exposed 6 days, observed 38 to 42 days of culture, both 201B7 and 1231A3 lines",emergence of a brown-black cell population could be confirmed over a wide area
same,cell morphology by microscopic observation,"[3]; PD0325901 1 μM, 6 days first step, 201B7, FIG. 2","the cells showed typical characteristics of RPE cell such as a brown-black, polygonal, cobblestone-like morphology"
same,emergence of RPE cells showing typical characteristics,[4],"emergence of RPE cells showing typical characteristics of RPE cell such as a brown-black, polygonal, cobblestone-like morphology could be confirmed"
same,emergence of brown-black cell population on culture plate,[5],emergence of a brown-black cell population could be confirmed over a wide area
same,brown-black cell population,[6],a remarkable increase in the brown-black cell population was seen
same,proportion of cells that developed color in the whole well versus number of exposure days,[6],the proportion of cells that developed color in the whole well increased as the number of exposure day increased up to 6 days of exposure
same,brown-black cell populations,[6],brown-black cell populations increased
same,emergence of brown-black cell population,[7]; exposure for 3 days,emergence of a brown-black cell population could be confirmed over a wide area
same,emergence of brown-black cell population,[7]; exposure for 6 days,emergence of a brown-black cell population could be confirmed over a wide area
same,emergence of colored cell population,[7]; exposure for 13 days,sufficient emergence of colored cell population was also confirmed
same,cells showing typical characteristics of RPE cell,[7]; exposure for one day,almost no cell that showed typical characteristics of RPE cell
same,emergence of brown-black cell population,[8]; all MEK inhibitor concentrations (0.25-4 μM),emergence of a brown-black cell population could be confirmed over a wide area
same,emergence of brown-black cell population,[9],emergence of a brown-black cell population could be confirmed over a wide area
same,emergence of brown-black cell population,[2],emergence of a brown-black cell population could be confirmed over a wide area
same,emergence of brown-black cell population,[10],emergence of a brown-black cell population could be confirmed over a wide area
same,"bands of retinal pigment epithelial cell markers RPE65, BEST1, CRALBP by RT-PCR","RPE65, BEST1, CRALBP",clear bands could be confirmed
"Cc1cc(C(=O)NOCCO)c(Nc2ccc(I)cc2F)n(C)c1=O [AZD-8330, 2-(2-fluoro-4-iodophenylamino)-N-(2-hydroxyethoxy)-1,5-dimethyl-6-oxo-1,6-dihydropyridine-3-carboxamide]",emergence of brown-black cell population,[2],emergence of a brown-black cell population could be confirmed over a wide area
"Cn1c(=O)c(F)c(Nc2ccc(I)cc2F)c2c(=O)n(C[C@@H](O)CO)cnc21 [TAK-733, (R)-3-(2,3-dihydroxypropyl)-6-fluoro-5-(2-fluoro-4-iodophenylamino)-8-methylpyrido[2,3-d]pyrimidine-4,7(3H, 8H)-dione]",emergence of brown-black cell population,[2],emergence of a brown-black cell population could be confirmed over a wide area
"CCN(CC)CCCCNc1ncc2cc(-c3cc(OC)cc(OC)c3)c(NC(=O)NC(C)(C)C)nc2n1 [PD173074, N-[2-[[4-(Diethylamino)butyl]amino]-6-(3,5-dimethoxyphenyl)pyrido[2,3-d]pyrimidin-7-yl]-N′-(1,1-dimethylethyl)urea]",cell morphology by microscopic observation,"[11]; 6 days first step, 201B7, FIG. 5","the cells showed typical characteristics of RPE cell such as a brown-black, polygonal, cobblestone-like morphology"
same,emergence of brown-black cell population on culture plate,"[11]; 6 days, AK03 medium, Essential 8 medium or StemSure hPSC Medium Δ w/o bFGF, observed 38 to 42 days, 201B7 line and/or 1231A3 line",emergence of a brown-black cell population could be confirmed over a wide area
same,emergence of RPE cells showing typical characteristics,[4],"emergence of RPE cells showing typical characteristics of RPE cell such as a brown-black, polygonal, cobblestone-like morphology could be confirmed"
same,emergence of brown-black cell population on culture plate,[5],emergence of a brown-black cell population could be confirmed over a wide area
same,brown-black cell population,[6],a remarkable increase in the brown-black cell population was seen
same,proportion of cells that developed color in the whole well versus number of exposure days,[6],the proportion of cells that developed color in the whole well increased as the number of exposure day increased up to 6 days of exposure
same,brown-black cell populations,[6],brown-black cell populations increased
same,emergence of brown-black cell population,[8]; all FGF receptor inhibitor concentrations (25-400 nM),emergence of a brown-black cell population could be confirmed over a wide area
same,emergence of brown-black cell population,[9],emergence of a brown-black cell population could be confirmed over a wide area
same,emergence of brown-black cell population,[12],emergence of a brown-black cell population could be confirmed over a wide area
same,emergence of brown-black cell population,[10],emergence of a brown-black cell population could be confirmed over a wide area
same,"bands of retinal pigment epithelial cell markers RPE65, BEST1, CRALBP by RT-PCR","RPE65, BEST1, CRALBP",clear bands could be confirmed
"Cc1c[nH]c(C=C2C(=O)Nc3ccccc32)c1CCC(=O)O [SU5402, 2-[(1,2-Dihydro-2-oxo-3H-indol-3-ylidene)methyl]-4-methyl-1H-pyrrole-3-propanoic acid]",emergence of brown-black cell population,[12],emergence of a brown-black cell population could be confirmed over a wide area
"NC(=O)c1ccc(-c2nc(-c3ccc4c(c3)OCO4)c(-c3ccccn3)[nH]2)cc1 [NODALi, 4-[4-(1,3-Benzodioxol-5-yl)-5-(pyridin-2-yl)-1H-imidazol-2-yl]benzamide]",emergence of cells showing typical characteristics of RPE cell,[1],"emergence of cells showing the same level of typical characteristics of RPE cell such as a brown-black, polygonal, cobblestone-like morphology could be confirmed"
"N#CC(=C(N)Sc1ccccc1N)C(C#N)=C(N)Sc1ccccc1N [U0126, 1,4-Diamino-2,3-dicyano-1,4-bis[2-aminophenylthio]butadiene]",emergence of brown-black cell population,[2],emergence of a brown-black cell population could be confirmed over a wide area
